# Data reported in patent US20100166714A1, “CARDIOVASCULAR STEM CELLS, METHODS FOR STEM CELL ISOLATION, AND USES THEREOF” (THE GENERAL HOSPITAL CORPORATION, priority 2006, published 2010).
# Test system: FACS purified isl1+ progenitors spontaneously differentiated into smooth muscle cells
# Experiment: Calcium imaging (fluo-4) after Angiotensin II stimulation
# Format: cell-based, mouse
# Conditions: Angiotensin II 10^-7 M
# Protocol: Calcium imaging. FACS purified isl1^+ progenitors from double heterozygous isl1-mER-Cre-mER/R26R were plated on fibronectin coated glass chamber slides and allowed to spontaneously differentiate in DMEM/F12 containing B27 supplement, 2% FBS, and 10 ng/ml EGF. After 5 days in culture, cells were incubated for 20 minutes with 5 μM Fluo-4 AM (Molecular Probes) in HEPES buffer. Cells were then rinsed three times in HEPES buffer, pH 7.4, containing 1.5 mM Ca^2+. Angiotensin II was applied at the final concentration of 10^−7 M. Calcium imaging was acquired every 100 msec in 100 sec installment and analyzed using Metamorph software (Universal Imaging Corporation). Each experiment included three installments to cover the period of the agonist effect.
substance,measurement,setting,value
"Angiotensin II (DRVYIHPF; Angiotensin-2; UniProt P01019 25-32, looked up)",measured cells in which exposure induced a progressive cytosolic [Ca2+]i increase,"isl1+ progenitors from isl1-mER-Cre-mER/R26R mice after 5 days in culture, Fluo-4 AM",4 of 25
same,time at which the cytosolic [Ca2+]i increase reached the maximum,"responding cells, diminished thereafter",~70 s
